From patent US20260103709A1, “C-MYC-TARGETING CHARGE-ALTERING RELEASABLE TRANSPORTERS AS ANTI-TUMOR AGENTS FOR BREAST CANCER THERAPY” (The Board of Trustees of the Leland Stanford Junior …, priority 2022, published 2026)

What was measured:
[1] = system: murine cell lines M1011, M158, and 4T1; assay: JQ1 cell viability IC50, murine TNBC cell lines (CellTiter Glo); assay type: cell-based, mouse; conditions: 24 hour treatment, range over murine TNBC cell lines
Description: (§1) The specificity and dependence of CART siMYC's inhibitory effect on Myc or MYC levels in murine or human TNBC cells, respectively, was evaluated next. […] A number of different murine and human TNBC cell lines expressing high (murine cells: M158, M1011, and 4T1; and human cells: MDA-MB-231 and MDA-MB-436) or low MYC levels (human cell: BT20) were evaluated. […] The viability of M1011 and 4T1 cells was reduced by 25% upon treatment with CART siMYC but not with CARTs alone or with CART siLUC (FIG. 4B, FIG. 4C). In human TNBC cells, treatment with a human MYC-targeting siRNA (SEQ ID NO: 1) reduced viability by 35% or 22% in MDA-MB-231 or MDA-MB-436 cells, respectively (FIG. 4D, FIG. 4E). […] We conclude that CART siMYC is effective against TNBC cells expressing high, but not low, MYC levels and that the breadth of its therapeutic effects is dependent on cellular MYC levels.
(§2) […] 96-well plates were rocked for 5 minutes at room temperature, 100 μl from each well were transferred to a white opaque 96-well plate and luminescence was read using a SpectraMax Paradigm Multi-Mode Detection Platform plate reader (Molecular Devices).

[2] = system: human cell lines MDA-MB-436, MDA-MB-231, and BT20; assay: JQ1 cell viability IC50, human TNBC cell lines (CellTiter Glo); assay type: cell-based; conditions: 24 hour treatment, range over human TNBC cell lines
Description: as §1, §2

BT20 cells = assay: Cell viability after CART with human MYC siRNA, BT20 (low MYC); assay type: cell-based; conditions: JQ1 at the concentrations used for pre-treatment
Description: FIG. 4A to FIG. 4F: CART siMYC decreases cell viability in cells expressing high levels of Myc. […] Error bars represent SEM. Significance was taken at P<0.05 (*), P<0.01 (**), and P<0.005 (***). ns=not significant.
The specificity and dependence of CART siMYC's inhibitory effect on Myc or MYC levels in murine or human TNBC cells, respectively, was evaluated next. […] A number of different murine and human TNBC cell lines expressing high (murine cells: M158, M1011, and 4T1; and human cells: MDA-MB-231 and MDA-MB-436) or low MYC levels (human cell: BT20) were evaluated. […] The viability of M1011 and 4T1 cells was reduced by 25% upon treatment with CART siMYC but not with CARTs alone or with CART siLUC (FIG. 4B, FIG. 4C). In human TNBC cells, treatment with a human MYC-targeting siRNA (SEQ ID NO: 1) reduced viability by 35% or 22% in MDA-MB-231 or MDA-MB-436 cells, respectively (FIG. 4D, FIG. 4E). […]
Plates were incubated for 48 hours and upon treatment completion, a CellTiTer Glow assay was performed according to manufacturer's instructions (Promega). 96-well plates were rocked for 5 minutes at room temperature, 100 μl from each well were transferred to a white opaque 96-well plate and luminescence was read using a SpectraMax Paradigm Multi-Mode Detection Platform plate reader (Molecular Devices).

In the case of `Cc1sc2c(c1C)C(c1ccc(Cl)cc1)=N[C@@H](CC(=O)OC(C)(C)C)c1nnc(C)n1-2` [JQ1], the IC50 [1] is reported as 0.3 to 0.72 µM, the IC50 [2] is reported as 7 to 32 µM and the “effect of JQ1 on BT20 cells” value (BT20 cells) is reported as “not significantly affected”.
